The text below walks through data of paper PMC7004565, “Nucleotide inhibition of the pancreatic ATP-sensitive K^+ channel explored with patch-clamp fluorometry” (eLife, 2020).

The subject of test [1] is second nucleotide binding site of SUR1. Further details: method as in Puljung et al., 2019. The conditions noted are these: ref Puljung et al., 2019, cited from earlier work.
The target of a further test is T1, Kir6.2-GFP (no SUR1) (Homo sapiens, UniProt Q14654).
T1 construct: ANAP labelling is specific and only full-length Kir6.2 is expressed at the cell membrane; expressed in transfected cells; host or cells: HEK-293T
T1 sequence (Q14654 1-390): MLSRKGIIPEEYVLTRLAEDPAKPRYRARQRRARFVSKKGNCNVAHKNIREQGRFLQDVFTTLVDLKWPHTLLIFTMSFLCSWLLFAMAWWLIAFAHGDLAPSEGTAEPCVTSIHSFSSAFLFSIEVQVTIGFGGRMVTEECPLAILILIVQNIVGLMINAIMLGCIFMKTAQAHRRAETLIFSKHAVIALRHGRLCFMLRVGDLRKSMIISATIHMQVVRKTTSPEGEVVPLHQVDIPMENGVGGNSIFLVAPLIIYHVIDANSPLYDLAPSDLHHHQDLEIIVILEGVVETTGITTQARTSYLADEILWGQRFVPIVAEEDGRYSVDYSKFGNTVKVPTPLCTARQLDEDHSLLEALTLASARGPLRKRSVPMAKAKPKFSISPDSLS
Put plainly: Current inhibition in excised inside-out patches. It is filed as biochemical. The protocol:
(§1) Currents were measured from patches from cells expressing KATP that were excised in the absence of Mg^2+. Under such conditions, nucleotides can bind to both sites on SUR1, but no activation occurs, allowing inhibitory currents to be measured in isolation ([Gribble et al., 1998]; [Ueda et al., 1999]; [Puljung et al., 2019]).

Another test deals with wild-type Kir6.2 + SUR1. The arrangement: method as in Proks et al., 2010; Vedovato et al., 2015. The conditions noted are these: MWC-type model, fits to published data; ref Proks et al., 2010; Vedovato et al., 2015; cited from earlier work.
For a further test, the target named is Kir6.2*,C166S-GFP + SUR1 (Homo sapiens, UniProt Q14654, C166S). The experiment in a line: Current inhibition in excised inside-out patches (patch-clamp fluorometry). A general note: The patch-clamp technique gives a direct electrical read-out from membranes.
Chain of Kir6.2*,C166S-GFP + SUR1 (Q14654 whole entry C166S): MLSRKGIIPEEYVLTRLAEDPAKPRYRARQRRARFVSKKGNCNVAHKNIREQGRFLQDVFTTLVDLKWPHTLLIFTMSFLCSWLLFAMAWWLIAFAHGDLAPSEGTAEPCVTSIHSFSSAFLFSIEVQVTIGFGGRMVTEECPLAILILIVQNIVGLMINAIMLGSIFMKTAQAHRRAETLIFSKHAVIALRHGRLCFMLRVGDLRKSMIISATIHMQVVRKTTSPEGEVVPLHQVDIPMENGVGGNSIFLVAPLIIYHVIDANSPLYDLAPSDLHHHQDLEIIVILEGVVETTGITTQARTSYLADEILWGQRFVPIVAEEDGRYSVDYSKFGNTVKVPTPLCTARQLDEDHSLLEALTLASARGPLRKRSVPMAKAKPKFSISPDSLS
Chain of Kir6.2*,C166S-GFP + SUR1 (Q09428 whole entry partner): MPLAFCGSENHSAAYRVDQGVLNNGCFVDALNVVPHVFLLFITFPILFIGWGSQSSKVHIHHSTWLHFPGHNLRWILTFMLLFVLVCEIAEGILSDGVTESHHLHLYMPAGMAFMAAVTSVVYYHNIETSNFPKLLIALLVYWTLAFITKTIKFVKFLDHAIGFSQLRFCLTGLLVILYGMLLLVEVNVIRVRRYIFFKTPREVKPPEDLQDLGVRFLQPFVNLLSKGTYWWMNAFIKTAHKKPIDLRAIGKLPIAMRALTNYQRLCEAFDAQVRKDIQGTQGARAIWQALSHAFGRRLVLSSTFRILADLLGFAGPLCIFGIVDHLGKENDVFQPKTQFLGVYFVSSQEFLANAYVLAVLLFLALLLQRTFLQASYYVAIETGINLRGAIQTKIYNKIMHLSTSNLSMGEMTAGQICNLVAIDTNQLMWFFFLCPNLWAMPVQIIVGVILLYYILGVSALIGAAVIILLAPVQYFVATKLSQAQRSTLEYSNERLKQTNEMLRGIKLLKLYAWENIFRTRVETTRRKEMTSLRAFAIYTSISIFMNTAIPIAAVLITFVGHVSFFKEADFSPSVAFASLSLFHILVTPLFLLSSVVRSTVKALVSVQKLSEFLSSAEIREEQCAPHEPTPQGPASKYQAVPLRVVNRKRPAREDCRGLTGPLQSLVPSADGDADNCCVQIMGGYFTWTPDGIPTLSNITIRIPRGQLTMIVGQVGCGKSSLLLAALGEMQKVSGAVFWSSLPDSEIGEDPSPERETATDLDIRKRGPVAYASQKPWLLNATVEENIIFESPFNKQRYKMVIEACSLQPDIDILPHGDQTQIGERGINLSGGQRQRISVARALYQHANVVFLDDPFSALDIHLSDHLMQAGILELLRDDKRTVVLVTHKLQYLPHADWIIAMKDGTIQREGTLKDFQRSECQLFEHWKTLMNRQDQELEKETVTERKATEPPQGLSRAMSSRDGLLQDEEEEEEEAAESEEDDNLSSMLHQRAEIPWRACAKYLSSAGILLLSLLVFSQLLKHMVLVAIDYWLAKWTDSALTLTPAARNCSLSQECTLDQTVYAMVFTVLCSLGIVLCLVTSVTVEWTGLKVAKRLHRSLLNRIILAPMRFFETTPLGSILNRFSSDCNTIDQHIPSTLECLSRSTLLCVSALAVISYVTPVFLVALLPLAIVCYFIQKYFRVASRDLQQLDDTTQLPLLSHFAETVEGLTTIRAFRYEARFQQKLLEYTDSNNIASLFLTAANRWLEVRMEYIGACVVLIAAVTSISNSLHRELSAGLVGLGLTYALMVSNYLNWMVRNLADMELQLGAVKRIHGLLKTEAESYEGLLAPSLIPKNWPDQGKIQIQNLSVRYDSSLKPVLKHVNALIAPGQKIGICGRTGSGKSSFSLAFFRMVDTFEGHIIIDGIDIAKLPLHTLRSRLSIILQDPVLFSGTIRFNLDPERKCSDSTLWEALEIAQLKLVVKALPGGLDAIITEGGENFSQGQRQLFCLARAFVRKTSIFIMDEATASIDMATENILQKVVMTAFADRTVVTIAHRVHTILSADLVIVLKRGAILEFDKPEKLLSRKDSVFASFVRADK
Test [2] addresses T2, Kir6.2-GFP + SUR1 (Homo sapiens, UniProt Q14654). The experiment in a line: Current inhibition in excised inside-out patches. It is filed as biochemical. Further details: ANAP labelling is specific and only full-length Kir6.2 is expressed at the cell membrane; expressed in transfected cells; host or cells: HEK-293T. The protocol:
as §1

Test [3] deals with T2, Kir6.2-GFP + SUR1. Put plainly: Current inhibition in excised inside-out patches (patch-clamp fluorometry). The class given is biochemical. The arrangement: full length, fully ANAP-labelled Kir6.2 protein was produced and successfully trafficked to the membrane in the presence of SUR1; expressed in transfected cells; host or cells: HEK-293T. As for the experimental part: as §1
Currents were measured as described above.

[4] abbreviates: binding to stimulatory second nucleotide binding site of SUR1.
The mark [5] stands for this setting: excised patches, Hill fit with 1-Imax set to 0, n = 3.

T2 sequence (Q09428 whole entry partner, one chain of several): as the sequence (Q09428 whole entry partner) above

The Kd is the constant that tells how readily two partners part at equilibrium. In the case of MgTNP-ADP, in test [1] (setting [4]), the KA was 58000 M⁻¹ and the dissociation constant (Kd) was 0.017 mM. In test [1] (currents and binding measured in separate preparations), the “E (factor by which binding to SUR1 stabilised channel opening)” value is given as 2.2.

On to `Nc1ncnc2c1ncn2[C@@H]1O[C@H](COP(=O)(O)OP(=O)(O)OP(=O)(O)O)[C@@H](O)[C@H]1O` [ATP], for which the “h (Hill coefficient) current inhibition” value at Kir6.2-GFP (no SUR1) (excised inside-out patches, no SUR1, Mg2+-free, Hill fit) is listed as 1.15; on Kir6.2-GFP + SUR1 [2] (Mg2+-free, Hill fit), 1.28; on Kir6.2-GFP + SUR1 [3] (excised inside-out patches, Mg2+-free, Hill fit), 1.42. In addition, the D with wild-type Kir6.2 + SUR1 is on record as 0.03. Besides, the KA in the test with wild-type Kir6.2 + SUR1 is 30000 M⁻¹. In addition, on Kir6.2*,C166S-GFP + SUR1 (10 mM ATP, excised patch), the “current inhibition at 10 mM” value was “only partial inhibition”.

One may read the inhibition as the share of the control response that was lost under treatment. As to `CCCCNC(=O)NS(=O)(=O)c1ccc(C)cc1` [tolbutamide], the “current inhibition by tolbutamide” value at Kir6.2-GFP (no SUR1) (100 µM tolbutamide, absence of SUR1, n = 5) is listed as “not affected”. The inhibition at 100 µM came out at 46.5% on Kir6.2-GFP + SUR1 [2] (100 µM tolbutamide, n = 3) and 57.7% at Kir6.2-GFP + SUR1 [3] (100 µM tolbutamide, excised inside-out patches, n = 4).

Usually IC50 stands for the concentration that gives 50% inhibition. For `CCN(CC)CC` [triethylamine], the “h (Hill coefficient) current inhibition” value at Kir6.2*,C166S-GFP + SUR1 (setting [5]) turned out to be 1.12; on Kir6.2-GFP + SUR1 [3] (setting [5]), 0.87. At Kir6.2-GFP + SUR1 [3] (excised patches, Hill fit with 1-Imax set to 0, n = 3, read-out: IC50 current inhibition), the IC50 came out at 63.1 mM.
